# US20030040506A1 (priority 2002, published 2003)
# Assay: Acid stability (acid-mediated hydrolytic decomposition, simulated stomach conditions)
# Type: physicochemical
# Settings: pH 1, 25° C.; for Compound left (%): 0.3 mg/mL in dilute hydrochloric acid, HPLC
# Experimental: Compounds were tested for their stability towards acid-mediated hydrolytic decomposition employing a test designed to simulate stomach conditions. Each compound was incubated at an initial concentration of 0.3 mg/mL in dilute hydrochloric acid at pH 1 for 24 hours at 25° C. HPLC was run immediately for t=0 and at intervals up to approximately 24 hours. The results for compounds of Example 2, part b, Example 9, and for comparative phosphoramidates of 2′,3′-dideoxy-adenosine (Compound 1093) and 2′,3′-didehydro-2′,3′-dideoxy-adenosine (Compound 1001), described in PCT/GB96/00580, are given in the table below.
smiles,measurement,setting,value
COC(=O)C(C)(C)NP(=O)(OC[C@@H]1C=C[C@H](n2cnc3c(NCC4CC4)nc(N)nc32)C1)Oc1ccccc1 (relative stereo) [Example 9],Compound left (%),Time 0 hr,100%
same,Compound left (%),Time 13 hr,96%
same,Compound left (%),Time 24 hr,94%
same,Acid stability in words,"after 24 hours, dilute hydrochloric acid",remained intact
